In patent US9962623B2, “Process to remove product alcohols from fermentation broth” (BUTAMAX ADVANCED BIOFUELS LLC, priority 2011, dated 2018):

System: yeast strain, Saccharomyces cerevisiae
Test: Effect of disinfectant on cell viability
Assay type: cell-based
Conditions: 5 mL cells mixed with 5 mL disinfectant solution
Description: A study was conducted to determine the effect of disinfectant on the viability of a yeast strain, Saccharomyces cerevisiae. The primary culture was prepared by incubating seed stock of the yeast in 10 mL tubes containing YPS media at 30° C. for 24 hours in an incubator shaker (Innova 4200, New Brunswick Scientific, Edison, N.J.). Klett flasks containing 50 mL broth were then inoculated with the aliquots of primary culture, and the flasks were incubated at 30° C. in an incubator shaker. The cells were grown until the Klett readings reached about 220. Dey-Engley neutralizing broth (DE broth) (Sigma-Aldrich Corp., St. Louis, Mo.) was used as the neutralizing dilution agent. […] Thin plates were also prepared with the DE broth/agar. […] Cells (5 mL) were mixed with 5 mL sterile PBS or 5 mL of the disinfectant solutions, and incubated for various time points (0.5, 1, 2.5, 5, or 10 minutes). […] After drying, the plates were inverted and incubated at 30° C. The black bar denotes the maximum detection limit of this test.

Measured: cell viability (cells counted on DE broth/agar plates)

CCO [70% alcohol, ethanol]
<10: 0.5 minutes incubation | 1 minute incubation | 2.5 minutes incubation | 5 minutes incubation | 10 minutes incubation
